# According to article PMC11998009, “Identification of a New FtsZ Inhibitor by Virtual Screening, Mechanistic Insights, and Structure–Activity Relationship Analyses” (ACS Infectious Diseases, 2025):
# Like-named read-outs stand apart in the source and are kept apart here.
# Assays:
# S. aureus ATCC25923 [1] = assay: MIC determination by 2-fold microdilution, resazurin method; assay type: cell-based, Staphylococcus aureus; settings: S. aureus ATCC25923, single drug
# P. aeruginosa PAO1 = assay: MIC / checkerboard with PaβN; assay type: cell-based
# A. baumannii ATCC19606 = assay: MIC / checkerboard with PaβN; assay type: cell-based
# [2] = MTT cell viability assay on A549; settings: human, A549 cells
# [3] = test system: A549 pulmonary epithelial cells; assay: MTT cell viability assay on A549; settings: A549, 25 μM, 24 h
# mammalian tubulin = assay: Tubulin polymerization assay, fluorescence based; assay type: biochemical; settings: for Vmax of tubulin polymerization: DMSO control 3.78
# [4] = test system: P. aeruginosa PAO1, K. pneumoniae ATCC13883, and A. baumannii ATCC19606; assay: MIC of C11 with PAβN, Gram-negative panel as a whole; assay type: cell-based; settings: efflux pump inhibitor PAβN present
# FtsZPa = target: T1, FtsZPa (Pseudomonas aeruginosa, UniProt P47204); assay: FtsZPa polymerization assay
# T1 sequence (P47204 1-394): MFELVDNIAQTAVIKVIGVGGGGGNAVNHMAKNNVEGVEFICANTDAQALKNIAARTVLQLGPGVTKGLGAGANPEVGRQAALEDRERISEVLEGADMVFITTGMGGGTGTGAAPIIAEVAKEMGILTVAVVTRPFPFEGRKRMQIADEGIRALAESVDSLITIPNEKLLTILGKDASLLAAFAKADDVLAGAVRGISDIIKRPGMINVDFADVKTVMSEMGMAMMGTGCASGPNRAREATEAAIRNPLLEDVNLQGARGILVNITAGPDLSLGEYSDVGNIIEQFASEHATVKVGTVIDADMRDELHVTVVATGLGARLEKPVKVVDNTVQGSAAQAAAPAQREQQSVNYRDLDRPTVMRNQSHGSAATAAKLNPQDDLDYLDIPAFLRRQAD
# [5] = test system: S. aureus ATCC25923 biofilms; assay: Biofilm eradication assay (CFU counting, CLSM); assay type: cell-based
# FtsZSa = target: T2, FtsZSa (Staphylococcus aureus, UniProt P0A031); assay: FtsZSa polymerization, sedimentation assay; settings: sedimentation assay, 100 μM
# T2 sequence (P0A031 1-390): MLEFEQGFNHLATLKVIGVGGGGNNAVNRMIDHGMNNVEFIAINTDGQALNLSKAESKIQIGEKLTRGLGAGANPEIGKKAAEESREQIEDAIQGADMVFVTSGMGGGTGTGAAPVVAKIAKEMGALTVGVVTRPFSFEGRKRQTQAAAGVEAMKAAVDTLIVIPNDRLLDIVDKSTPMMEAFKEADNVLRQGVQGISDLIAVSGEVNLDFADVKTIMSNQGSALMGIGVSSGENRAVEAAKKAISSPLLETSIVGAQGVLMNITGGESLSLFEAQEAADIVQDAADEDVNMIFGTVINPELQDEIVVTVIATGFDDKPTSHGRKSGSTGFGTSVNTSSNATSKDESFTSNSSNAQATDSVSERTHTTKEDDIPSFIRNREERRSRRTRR
# S. aureus TD276 = assay: MIC against the FtsZ-mCherry strain; assay type: cell-based; settings: Staphylococcus aureus
# [6] = test system: S. aureus TD276 expressing FtsZ-mCherry; assay: FtsZ localization by fluorescence time-lapse microscopy; assay type: cell-based; settings: 4 μg/mL C11, time-lapse; untreated 4%
# S. aureus ATCC25923 [7] = assay: Time-killing curve; assay type: cell-based
# Method: (§1) page 19: […] MIC method. […] The cultures were incubated at 37°C, and aliquots were […] Serial dilutions were spread on LB solid medium and the plates were incubated at 37°C O/N. Then, the number of colonies was determined. Killing curves were constructed by plotting the log10 CFU/ml vs. time. Bactericidal activity was defined as a reduction of 99.9% (≥3 log 10) of the total number of CFU/ml in the original inoculum (NCCLS, 1999). Bacteriostatic activity was defined as maintenance of the original inoculum concentration or a reduction of less than 99.9% (<3 log10) of the total number of CFU/ml in the original inoculum. Live cell imaging experiments […] Cells were diluted to OD of 0.02 in fresh TSB containing in the case of strain TD276 anhydrotetracycline 0.4 μM to induce the expression of mCherryFtsZ. After 1 hour of incubation at 37°C 2 μl of the culture was spotted onto an agar pad prepared with TSB and […] For time-lapse microscopy experiments, an inverted widefield microscope (Leica DMi8S) equipped with a 100× oil immersion objective (HC PL FLUOTAR 100x/1.32 OIL) was used. […] Images were recorded at 15-min intervals and up to 5 h. Bacteria were visualized in phase- contrast and fluorescence with the required parameters. […] S. aureus […] in fluorescence (with the required parameters for Hoechst and mCherry) using a 160x objective (HC PL APO S19
# S. aureus ATCC25923 [8] = assay: Single-cell time-lapse microscopy, cell area; assay type: cell-based; settings: 2 × MIC (4 μg/mL), 5 h
# Method: as §1
smiles,measurement,setting,value
COc1ccc(Cc2nnc(SC3=CS(=O)(=O)c4ccccc43)o2)cc1 [C11],MIC S. aureus,S. aureus ATCC25923 [1],2 µg/mL
same,MIC,S. aureus ATCC25923 [1]; Staphylococcus aureus,2 µg/mL
same,MIC,"P. aeruginosa PAO1; P. aeruginosa PAO1, C11 alone",≥ 128 µg/mL
same,MIC,"P. aeruginosa PAO1; Pseudomonas aeruginosa, PAO1, P. aeruginosa PAO1, + PaβN 64 µg/ml, read-out: MIC",16 µg/mL
same,MIC,"P. aeruginosa PAO1; Pseudomonas aeruginosa, PAO1, P. aeruginosa PAO1, + PaβN […], read-out: MIC",1 µg/mL
same,MIC,"P. aeruginosa PAO1; Pseudomonas aeruginosa, PAO1, P. aeruginosa PAO1, C11 alone, read-out: MIC",≥ 128 µg/mL
same,MIC,"A. baumannii ATCC19606; A. baumannii ATCC19606, C11 alone",≥ 128 µg/mL
same,MIC,"A. baumannii ATCC19606; Acinetobacter baumannii, ATCC19606, A. baumannii ATCC19606, + PaβN 64 µg/ml, read-out: MIC",1 µg/mL
same,MIC,"A. baumannii ATCC19606; Acinetobacter baumannii, ATCC19606, A. baumannii ATCC19606, C11 alone, read-out: MIC",≥ 128 µg/mL
same,"viability at 6 h, 25 µM",[2],> 90%
same,Percentage of live cells (MTT),[3],higher than 70%
same,Vmax of tubulin polymerization,mammalian tubulin; 5 μM,3.5 mOD/min
same,Vmax of tubulin polymerization,mammalian tubulin; 10 μM,3 mOD/min
same,Decrease of tubulin polymerization,"mammalian tubulin; 25 μM (9.6 μg/mL), highest tested concentration",20%
same,Vmax of tubulin polymerization,mammalian tubulin; 25 μM,2.8 mOD/min
same,MIC values in the presence of PAβN,[4],1 to 16 µg/mL
same,IC50,FtsZPa,34 µM
same,"Biofilm eradication, viable cells by CFU counting","[5]; 2 × MIC, 4 μg/mL, 24 h treatment",reduce the number of viable cells
same,Biofilm eradication by CLSM,"[5]; increasing concentrations (4, 8, 16 μg/ml)",eradicating the majority of the attached cells
same,Effect on FtsZSa polymers formation,FtsZSa,inhibitory effect on FtsZSa polymerization
same,MIC,S. aureus TD276,2 µg/mL
same,Percentage of cells in which FtsZ was delocalized,[6],60%
same,Time-kill effect,"S. aureus ATCC25923 [7]; 1- or 2-fold the MIC, 24 h",Bacteriostatic effect
same,Time-kill effect,S. aureus ATCC25923 [7]; half of the MIC,slight regrowth
same,Area of the cells compared to untreated cells,S. aureus ATCC25923 [8],significantly larger
